From patent US20240254129A1, “HETEROCYCLIC COMPOUNDS AND USES THEREOF” (Kumquat Biosciences Inc., priority 2021, published 2024)

Experiments:
[1] = biological target: GST-tagged K-Ras mutant / His-tagged hSOS1 (Homo sapiens, UniProt P01116); assay: HTRF assay, K-Ras mutant / SOS1 interaction; assay type: binding; conditions: compound nos. 401-703; read-out: IC50 against mutant Kras
Method in brief: (§1)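 Compounds tested in duplicate from 10 μM down to 0.01 μM, incubated about 10 min or longer with GST-K-Ras/anti-GST-Eu and His-hSOS1/anti-6His-XL665 in ~5 mM HEPES pH 7.4 buffer with ~150 mM NaCl, DTT, BSA and Igepal. IC50 derived from 665/620 nm emission ratio.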

wildtype Kras / hSOS1 = biological target: T1, wildtype Kras / hSOS1 (Homo sapiens, UniProt P01116); assay: HTRF assay, wildtype Kras / SOS1 interaction; assay type: binding; conditions: compound nos. 401-703; read-out: IC50 against wildtype Kras
T1 construct: made in house; host or cells: E. coli BL21 (DE3)
T1 sequence (P01116 1-188 isoform P01116-2): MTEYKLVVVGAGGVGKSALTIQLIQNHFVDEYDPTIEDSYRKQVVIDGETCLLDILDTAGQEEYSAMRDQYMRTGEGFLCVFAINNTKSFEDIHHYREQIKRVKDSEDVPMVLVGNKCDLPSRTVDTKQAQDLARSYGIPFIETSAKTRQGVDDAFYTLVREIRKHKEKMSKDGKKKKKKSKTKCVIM
Method in brief: as §1

Sequence of GST-tagged K-Ras mutant / His-tagged hSOS1 (P01116 whole entry G12D, form open): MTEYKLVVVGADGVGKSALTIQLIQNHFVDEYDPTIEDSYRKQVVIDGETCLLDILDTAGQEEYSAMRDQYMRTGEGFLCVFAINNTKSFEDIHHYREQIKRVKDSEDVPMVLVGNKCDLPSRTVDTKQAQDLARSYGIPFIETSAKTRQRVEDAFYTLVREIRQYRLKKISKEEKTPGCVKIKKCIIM

Row | SMILES | IC50 [1] [µM] | IC50 (wildtype Kras / hSOS1) [µM]
1 | Nc1nc2c(-c3c(Cl)cc4c(N5CCCOC(CO)C5)nc(OCC56CCCN5CCC6)nc4c3F)cccc2s1 (stereo not shown) [Compound 465, (4-(7-(2-aminobenzo[d]-thiazol-4-yl)-6-chloro-8-fluoro-2-((tetrahydro-1H-pyrrolizin-7a(5H)-yl)meth-oxy)quinazolin-4-yl)-1,4-oxazepan-2-yl)methanol] | < 0.5 | < 0.5
2 | CN1CCC[C@H]1COc1nc(N2CCC(O)C(F)CC2)c2cc(Cl)c(-c3cccc4sc(N)nc34)c(F)c2n1 (stereo partly drawn) [Compound 466, 1-(7-(2-aminobenzo[d]-thiazol-4-yl)-6-chloro-8-fluoro-2-(((S)-1-methylpyr-rolidin-2-yl)methoxy)quin-azolin-4-yl)-5-fluoroazepan-4-ol] | < 0.5 | < 0.5
3 | Fc1c(N2CCCc3cccc(Cl)c32)cc(Cl)c2c(N3CCCCCC3)nc(OCC34CCCN3CCC4)nc12 [Compound 467, 4-(azepan-1-yl)-5-chloro-7-(8-chloro-3,4-dihydroquin-olin-1(2H)-yl)-8-fluoro-2-((tetrahydro-1H-pyrrolizin-7a(5H)-yl)methoxy)quin-azoline] | > 0.5 | < 0.5
4 | Cc1ccc2sc(N)nc2c1-c1c(Cl)cc2c(N3CC4CCC(C3)N4)nc(OCC34CCCN3CCC4)nc2c1F [Compound 468, 4-(4-(3,8-diazabicyclo-[3.2.1]octan-3-yl)-6-chloro-8-fluoro-2-((tetrahydro-1H-pyrrolizin-7a(5H)-yl)meth-oxy)quinazolin-7-yl)-5-methylbenzo[d]thiazol-2-amine] | < 0.5 | < 0.5
5 | Cc1ccc(CN)cc1-c1c(Cl)cc2c(N3CC4CCC(C3)N4)nc(OCC34CCCN3CCC4)nc2c1F [Compound 469, (3-(4-(3,8-diazabicyclo-[3.2.1]octan-3-yl)-6-chloro-8-fluoro-2-((tetrahydro-1H-pyrrolizin-7a(5H)-yl)meth-oxy)quinazolin-7-yl)-4-methylphenyl)methanamine] | > 0.5 | < 0.5
6 | CN1[C@@H]2CC[C@H]1CN(c1nc(OC[C@@]34CCCN3C[C@H](F)C4)nc3c(F)c(-c4ccc(F)c5sc(N)nc45)c(Cl)cc13)C2 [Compound 470, 4-(6-chloro-8-fluoro-2-(((2R,7aS)-2-fluorotetrahydro-1H-pyrrolizin-7a(5H)-yl)methoxy)-4-((1R,5S)-8-methyl-3,8-diazabicyclo[3.2.1]octan-3-yl)quinazolin-7-yl)-7-fluorobenzo[d]thiazol-2-amine] | < 0.5 | < 0.5
7 | CN1CCC[C@H]1COc1nc(N2CCCC(NS(=O)(=O)C3CC3)CC2)c2cc(Cl)c(-c3cccc4sc(N)nc34)c(F)c2n1 (stereo partly drawn) [Compound 472, N-(1-(7-(2-aminobenzo[d]-thiazol-4-yl)-6-chloro-8-fluoro-2-(((S)-1-methylpyr-rolidin-2-yl)methoxy)quin-azolin-4-yl)azepan-4-yl)-cyclopropanesulfonamide] | < 0.5 | < 0.5
8 | N#Cc1c(N)sc2c(F)ccc(-c3c(Cl)cc4c(N5CC6CCC(C5)O6)nc(OC[C@@]56CCCN5C[C@H](F)C6)nc4c3F)c12 [Compound 473, 4-(4-(8-oxa-3-azabicyclo-[3.2.1]octan-3-yl)-6-chloro-8-fluoro-2-(((2R,7aS)-2-fluorotetrahydro-1H-pyrrol-izin-7a(5H)-yl)methoxy)-quinazolin-7-yl)-2-amino-7-fluorobenzo[b]thiophene-3-carbonitrile] | < 0.5 | < 0.5
9 | COC1CCCCN(c2nc(OC[C@@H]3CCCN3C)nc3c(F)c(-c4cccc5sc(N)nc45)c(Cl)cc23)C1 (stereo partly drawn) [Compound 474, 4-(6-chloro-8-fluoro-4-(3-methoxyazepan-1-yl)-2-(((S)-1-methylpyrrolidin-2-yl)methoxy)quinazolin-7-yl)benzo[d]thiazol-2-amine] | < 0.5 | < 0.5
10 | CN1CCC[C@H]1COc1nc(N2CCCS(=O)(=O)CC2)c2cc(Cl)c(-c3cccc4sc(N)nc34)c(F)c2n1 [Compound 475, 4-(7-(2-aminobenzo[d]-thiazol-4-yl)-6-chloro-8-fluoro-2-(((S)-1-methyl-pyrrolidin-2-yl)methoxy)-quinazolin-4-yl)-1,4-thiazepane 1,1-dioxide] | < 0.5 | < 0.5
11 | N#Cc1c(N)sc2cc(F)cc(-c3c(Cl)cc4c(N5CC6CCC(C5)N6)nc(OC[C@@]56CCCN5C[C@H](F)C6)nc4c3F)c12 [Compound 476, 4-(4-(3,8-diazabicyclo-[3.2.1]octan-3-yl)-6-chloro-8-fluoro-2-(((2R,7aS)-2-fluorotetrahydro-1H-pyrrolizin-7a(5H)-yl)meth-oxy)quinazolin-7-yl)-2-amino-6-fluorobenzo[b]-thiophene-3-carbonitrile] | < 0.5 | < 0.5
12 | Nc1nc2c(-c3c(Cl)cc4c(N5CCCS(=O)(=O)CC5)nc(OC[C@@]56CCCN5C[C@H](F)C6)nc4c3F)ccc(F)c2s1 [Compound 477, 4-(7-(2-amino-7-fluoroben-zo-[d]thiazol-4-yl)-6-chloro-8-fluoro-2-(((2R,7aS)-2-fluorotetrahydro-1H-pyrrolizin-7a(5H)-yl)meth-oxy)quinazolin-4-yl)-1,4-thiazepane 1,1-dioxide] | < 0.5 | < 0.5
13 | Cc1ccc2cnn(C)c2c1-c1ccc2c(N3CC4CCC(C3)N4)nc(OC[C@@]34CCCN3C[C@H](F)C4)nc2c1F [Compound 478, 4-(3,8-diazabicyclo-[3.2.1]octan-3-yl)-7-(1,6-dimethyl-1H-indazol-7-yl)-8-fluoro-2-(((2R,7aS)-2-fluorotetrahydro-1H-pyrrolizin-7a(5H)-yl)meth-oxy)quinazoline] | > 0.5 | < 0.5
14 | Fc1c(Br)c(Cl)cc2c(N3CC4CCC(C3)N4)nc(OC[C@@]34CCCN3C[C@H](F)C4)nc12 [Compound 479, 4-(3,8-diazabicyclo[3.2.1]-octan-3-yl)-7-bromo-6-chloro-8-fluoro-2-(((2R,7aS)-2-fluorotetra-hydro-1H-pyrrolizin-7a(5H)-yl)methoxy)quin-azoline] | > 0.5 | < 0.5
15 | Nc1nc2c(-c3c(Cl)cc4c(N5CCC[C@@H](O)CC5)nc(OC[C@@]56CCCN5C[C@H](F)C6)nc4c3F)ccc(F)c2s1 [Compound 480, (4R)-1-(7-(2-amino-7-fluorobenzo[d]thiazol-4-yl)-6-chloro-8-fluoro-2-(((2R,7aS)-2-fluorotetra-hydro-1H-pyrrolizin-7a(5H)-yl)methoxy)quinazolin-4-yl)azepan-4-ol] | < 0.5 | < 0.5
16 | CNCC1CN(c2nc(OCC34CCCN3CCC4)nc3c(F)c(-c4ccc(F)c5sc(N)nc45)c(Cl)cc23)CCCO1 (stereo not shown) [Compound 481, 4-(6-chloro-8-fluoro-4-(2-((methylamino)methyl)-1,4-oxazepan-4-yl)-2-((tetra-hydro-1H-pyrrolizin-7a(5H)-yl)methoxy)quinazolin-7-yl)-7-fluorobenzo[d]thiazol-2-amine] | < 0.5 | < 0.5
17 | Fc1c(-c2cccc(-c3ccccc3)c2)c(Cl)cc2c(N3CCCCCC3)nc(OCC34CCCN3CCC4)nc12 [Compound 482, 7-([1,1′-biphenyl]-3-yl)-4-(azepan-1-yl)-6-chloro-8-fluoro-2-((tetrahydro-1H-pyrrolizin-7a(5H)-yl)meth-oxy)quinazoline] | > 0.5 | < 0.5
18 | Nc1nc2c(-c3cc4c(=O)n(CCN5CCCC5)nc(N5CCCOCC5)c4cc3Cl)ccc(F)c2s1 [Compound 484, 7-(2-amino-7-fluorobenzo-[d]thiazol-4-yl)-6-chloro-4-(1,4-oxazepan-4-yl)-2-(2-(pyrrolidin-1-yl)ethyl)phthal-azin-1(2H)-one] | > 0.5 | < 0.5
19 | Nc1nc2c(-c3c(Cl)cc4c(N5CCCC(CO)CC5)nc(OC[C@@]56CCCN5C[C@H](F)C6)nc4c3F)ccc(F)c2s1 (stereo partly drawn) [Compound 485, (1-(7-(2-amino-7-fluoro-benzo[d]thiazol-4-yl)-6-chloro-8-fluoro-2-(((2R,7aS)-2-fluorotetra-hydro-1H-pyrrolizin-7a(5H)-yl)methoxy)quinazolin-4-yl)azepan-4-yl)methanol] | < 0.5 | < 0.5
20 | Fc1c(N2CCc3ccccc32)ccc2c(N3CCCCCC3)nc(OCC34CCCN3CCC4)nc12 [Compound 487, 4-(azepan-1-yl)-8-fluoro-7-(indolin-1-yl)-2-((tetra-hydro-1H-pyrrolizin-7a(5H)-yl)methoxy)quin-azoline] | > 0.5 | < 0.5
21 | CN(C)CC1(COc2nc(N3CCNCC(F)(F)C3)c3cc(Cl)c(-c4ccc(F)c5sc(N)nc45)c(F)c3n2)CC1 [Compound 489, 4-(6-chloro-4-(6,6-difluoro-1,4-diazepan-1-yl)-2-((1-((dimethylamino)methyl)-cyclopropyl)methoxy)-8-fluoroquinazolin-7-yl)-7-fluorobenzo[d]thiazol-2-amine] | < 0.5 | < 0.5
22 | CN1CCC[C@H]1COc1nc(N2CCCC(n3ccnc3)CC2)c2cc(Cl)c(-c3cccc4sc(N)nc34)c(F)c2n1 (stereo partly drawn) [Compound 490, 4-(4-(4-(1H-imidazol-1-yl)-azepan-1-yl)-6-chloro-8-fluoro-2-(((S)-1-methylpyr-rolidin-2-yl)methoxy)quin-azolin-7-yl)benzo[d]thiazol-2-amine] | > 0.5 | < 0.5
23 | Nc1nc2ccccc2c(-c2ccc3c(N4CC5CCC(C4)N5)nc(OCC45CCCN4CCC5)nc3c2F)c1Cl [Compound 493, 4-(4-(3,8-diazabicyclo-[3.2.1]octan-3-yl)-8-fluoro-2-((tetrahydro-1H-pyrrol-izin-7a(5H)-yl)methoxy)-quinazolin-7-yl)-3-chloro-quinolin-2-amine] | > 0.5 | < 0.5
